Data: patent publication US10189842B2 (Agency for Science, Technology and Research, priority 2013, dated 2019)

What follows are compounds tested on HEK293-STF3A cells (assay: STF3A assay (luciferase reporter)). Conditions: Homo sapiens, 24 h, 1 day of treatment.
Assay type: cell-based, Human
In short: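 HEK293 cells carrying the STF reporter and expressing Wnt3A, seeded 2×10^4 per well overnight, then treated 1 day with compound at final 50 μM to 1.5 nM. Luciferase activity read by luminescence after Steady-Glo reagent, 10 min at room temperature.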

SMILES	IC50 [nM]
Cc1cc2n(n1)CCCN2C(=O)CCC(=O)Nc1ncc(-c2ccccc2)cn1 [Compound 46, 4-{2-methyl-5H,6H,7H-pyrazolo[1,5-a]pyrimidin-4-yl}-4-oxo-N-(5-phenylpyrimidin-2-yl)butanamide]	< 1000
Cc1cc2n(n1)CCCN2C(=O)CCC(=O)Nc1ccc(-c2ccccc2)c(F)c1 [Compound 57, N-(2-fluorobiphenyl-4-yl)-4-(2-methyl-6,7-dihydropyrazolo[1,5-a]pyrimidin-4(5H)-yl)-4-oxobutanamide]	< 100
Cc1cc2n(n1)CCN2C(=O)CCC(=O)Nc1cc(-c2cccc(Cl)c2)no1 [Compound 138, N-(3-(3-chlorophenyl)isoxazol-5-yl)-4-(6-methyl-2,3-dihydro-1H-imidazo[1,2-b]pyrazol-1-yl)-4-oxobutanamide]	> 10000
CCc1cc2n(n1)CCCN2C(=O)CCC(=O)Nc1cc(-c2cccc(Cl)c2)no1 [Compound 137, N-(3-(3-chlorophenyl)isoxazol-5-yl)-4-(2-ethyl-6,7-dihydropyrazolo[1,5-a]pyrimidin-4(5H)-yl)-4-oxobutanamide]	< 100
Cc1cc2n(n1)CCCN2C(=O)CCC(=O)Nc1ccc(-c2cnccn2)nc1 [Compound 166, 4-(2-methyl-6,7-dihydropyrazolo[1,5-a]pyrimidin-4(5H)-yl)-4-oxo-N-(6-(pyrazin-2-yl)pyridin-3-yl)butanamide]	< 1000
Cc1cc2n(n1)CCCN2C(=O)CCC(=O)Nc1ccc(-c2ccccc2)nc1 [Compound 43, 4-(2-methyl-6,7-dihydropyrazolo[1,5-a]pyrimidin-4(5H)-yl)-4-oxo-N-(6-phenylpyridin-3-yl)butanamide]	< 100
Cc1cc2n(n1)CCCN2C(=O)CCC(=O)Nc1ccc(-c2ccccc2C)cc1 [Compound 58, 4-(2-methyl-6,7-dihydropyrazolo[1,5-a]pyrimidin-4(5H)-yl)-N-(2′-methyl-[1,1′-biphenyl]-4-yl)-4-oxobutanamide]	< 100
Cc1cc(NC(=O)CCC(=O)N2CCCn3nc(C)cc32)on1 [Compound 1, 4-(2-methyl-6,7-dihydropyrazolo[1,5-a]pyrimidin-4(5H)-yl)-N-(3-methylisoxazol-5-yl)-4-oxobutanamide]	> 10000
Cc1cncc(-c2ccc(NC(=O)CCC(=O)N3CC(C)Cn4nc(C)cc43)nc2)c1 (stereo not drawn) [Compound 142, 4-(2,6-dimethyl-6,7-dihydropyrazolo[1,5-a]pyrimidin-4(5H)-yl)-N-(5′-methyl-[3,3′-bipyridin]-6-yl)-4-oxobutanamide]	< 100
O=C(CCC(=O)N1CCCn2nc(C(F)(F)F)cc21)Nc1cc(-c2cccc(Cl)c2)no1 [Compound 134, N-(3-(3-chlorophenyl)isoxazol-5-yl)-4-oxo-4-(2-(trifluoromethyl)-6,7-dihydropyrazolo[1,5-a]pyrimidin-4(5H)-yl)butanamide]	< 100
Cc1cc2n(n1)CCCN2C(=O)CCC(=O)Nc1ccc(N2CCNCC2)cc1 [Compound 77, 4-(2-methyl-6,7-dihydropyrazolo[1,5-a]pyrimidin-4(5H)-yl)-4-oxo-N-(4-(piperazin-1-yl)phenyl)butanamide]	> 10000
Cc1cc2n(n1)CCCN2C(=O)CCC(=O)Nc1ccc(-c2cncc(C(F)(F)F)c2)cn1 [Compound 118, 4-(2-methyl-6,7-dihydropyrazolo[1,5-a]pyrimidin-4(5H)-yl)-4-oxo-N-(5′-(trifluoromethyl)-[3,3′-bipyridin]-6-yl)butanamide]	< 100
Cc1cc2n(n1)CCCN2C(=O)CCC(=O)Nc1ccc(-c2cccc(Cl)c2)cn1 [Compound 88]	< 100
Cc1cc2n(n1)CCCN2C(=O)CCC(=O)Nc1ccc(-c2cccnc2)cn1 [Compound 49, 4-{2-methyl-5H,6H,7H-pyrazolo[1,5-a]pyrimidin-4-yl}-4-oxo-N-[5-(pyridin-3-yl)pyridin-2-yl]butanamide]	< 100
COC(=O)c1cc2n(n1)CCCN2C(=O)CCC(=O)Nc1cc(-c2cccc(Cl)c2)no1 [Compound 136, methyl 4-(4-(3-(3-chlorophenyl)isoxazol-5-ylamino)-4-oxobutanoyl)-4,5,6,7-tetrahydropyrazolo[1,5-a]pyrimidine-2-carboxylate]	> 10000
Cc1cc2n(n1)CCCN2C(=O)CCC(=O)Nc1cnc(-c2cccc(F)c2)cn1 [Compound 123, N-(5-(3-fluorophenyl)pyrazin-2-yl)-4-(2-methyl-6,7-dihydropyrazolo[1,5-a]pyrimidin-4(5H)-yl)-4-oxobutanamide]	< 100
Cc1cncc(-c2ccc(NC(=O)CCC(=O)N3CCCn4nc(C)cc43)nc2)c1 [Compound 116, 4-(2-methyl-6,7-dihydropyrazolo[1,5-a]pyrimidin-4(5H)-yl)-N-(5′-methyl-[3,3′-bipyridin]-6-yl)-4-oxobutanamide]	< 100
Cc1cc2n(n1)CCCN2C(=O)CCC(=O)Nc1ccc(-c2cccc(N)c2)cc1 [Compound 70, N-(3′-amino-[1,1′-biphenyl]-4-yl)-4-(2-methyl-6,7-dihydropyrazolo[1,5-a]pyrimidin-4(5H)-yl)-4-oxobutanamide]	< 100

SMILES	IC50 [nM]
COc1cc2n(n1)CCCN2C(=O)CCC(=O)Nc1cc(-c2cccc(Cl)c2)no1 [Compound 135, N-(3-(3-chlorophenyl)isoxazol-5-yl)-4-(2-methoxy-6,7-dihydropyrazolo[1,5-a]pyrimidin-4(5H)-yl)-4-oxobutanamide]	> 10000
Cc1ccc(-c2ccc(NC(=O)CCC(=O)N3CCCn4nc(C)cc43)nc2)cn1 [Compound 121, N-(6′-methyl-3,3′-bipyridin-6-yl)-4-(2-methyl-6,7-dihydropyrazolo[1,5-a]pyrimidin-4(5H)-yl)-4-oxobutanamide]	< 100
Cc1cc2n(n1)CCCN2C(=O)CCC(=O)Nc1cc(-c2cccc(F)c2)no1 [Compound 8, N-(3-(3-fluorophenyl)isoxazol-5-yl)-4-(2-methyl-6,7-dihydropyrazolo[1,5-a]pyrimidin-4(5H)-yl)-4-oxobutanamide]	< 100
Cc1cc2n(n1)CCCN2C(=O)CCC(=O)Nc1ccc(-c2ccnn2C)cc1 [Compound 29, N-(4-(1-methyl-1H-pyrazol-5-yl)phenyl)-4-(2-methyl-6,7-dihydropyrazolo[1,5-a]pyrimidin-4(5H)-yl)-4-oxobutanamide]	< 1000
Cc1cc2n(n1)CCCN2C(=O)CCC(=O)Nc1ccc(-c2ccccn2)cn1 [Compound 41, N-([2,3′-bipyridin]-6′-yl)-4-(2-methyl-6,7-dihydropyrazolo[1,5-a]pyrimidin-4(5H)-yl)-4-oxobutanamide]	< 100
Cc1cncc(-c2cnc(NC(=O)CCC(=O)N3CCCn4nc(C)cc43)cn2)c1 [Compound 124, 4-(2-methyl-6,7-dihydropyrazolo[1,5-a]pyrimidin-4(5H)-yl)-N-(5-(5-methylpyridin-3-yl)pyrazin-2-yl)-4-oxobutanamide]	< 100
Cc1cc2n(n1)CCCN2C(=O)CCC(=O)Nc1ccc(-c2cccc(C(=O)O)c2)cc1 [Compound 67, 4′-(4-(2-methyl-6,7-dihydropyrazolo[1,5-a]pyrimidin-4(5H)-yl)-4-oxobutanamido)-[1,1′-biphenyl]-3-carboxylic acid]	> 10000
Cc1cccc(-c2ccc(NC(=O)CCC(=O)N3CCCn4nc(C)cc43)nc2)c1 [Compound 93, 4-(2-methyl-6,7-dihydropyrazolo[1,5-a]pyrimidin-4(5H)-yl)-4-oxo-N-(5-(m-tolyl)pyridin-2-yl)butanamide]	< 100
Cc1cc2n(n1)CCCN2C(=O)CCC(=O)Nc1ccc(-c2ccccn2)cc1 [Compound 34, 4-(2-methyl-6,7-dihydropyrazolo[1,5-a]pyrimidin-4(5H)-yl)-4-oxo-N-(4-(pyridin-2-yl)phenyl)butanamide]	< 100
Cc1cc2n(n1)CCCN2C(=O)CCC(=O)Nc1cc(-c2cccc(Cl)c2)on1 [Compound 23, N-[5-(3-chlorophenyl)-1,2-oxazol-3-yl]-4-{2-methyl-5H,6H,7H-pyrazolo[1,5-a]pyrimidin-4-yl}-4-oxobutanamide]	< 1000
Cc1cc2n(n1)CCCN2C(=O)CCC(=O)Nc1cnc(-c2ccccc2)c(F)c1 [Compound 156, N-(5-fluoro-6-phenylpyridin-3-yl)-4-(2-methyl-6,7-dihydropyrazolo[1,5-a]pyrimidin-4(5H)-yl)-4-oxobutanamide]	< 100
Cc1cc2n(n1)CCCN2C(=O)CCC(=O)Nc1ccc(-c2cncc(F)c2)cn1 [Compound 115, N-(5′-fluoro-[3,3′-bipyridin]-6-yl)-4-(2-methyl-6,7-dihydropyrazolo[1,5-a]pyrimidin-4(5H)-yl)-4-oxobutanamide]	< 100
Cc1cccc(-c2ccc(NC(=O)CCC(=O)N3CCCn4nc(C)cc43)cn2)c1 [Compound 85, 4-(2-methyl-6,7-dihydropyrazolo[1,5-a]pyrimidin-4(5H)-yl)-4-oxo-N-(6-(m-tolyl)pyridin-3-yl)butanamide]	< 100
Cc1cncc(-c2ccc(NC(=O)CCC(=O)N3CC(C)Cn4nc(C)cc43)cn2)c1 (stereo not drawn) [Compound 144, 4-(2,6-dimethyl-6,7-dihydropyrazolo[1,5-a]pyrimidin-4(5H)-yl)-N-(5′-methyl-[2,3′-bipyridin]-5-yl)-4-oxobutanamide]	< 100
Cc1ccc(-c2ccc(NC(=O)CCC(=O)N3CCCn4nc(C)cc43)cc2)cc1 [Compound 60, 4-(2-methyl-6,7-dihydropyrazolo[1,5-a]pyrimidin-4(5H)-yl)-N-(4′-methyl-[1,1′-biphenyl]-4-yl)-4-oxobutanamide]	< 100
Cc1cc2n(n1)CCCN2C(=O)CCC(=O)NC1CCC(c2ccccc2)CC1 (stereo not drawn) [Compound 80, 4-(2-methyl-6,7-dihydropyrazolo[1,5-a]pyrimidin-4(5H)-yl)-4-oxo-N-(4-phenylcyclohexyl)butanamide]	> 10000
Cc1ccc(-c2cnc(NC(=O)CCC(=O)N3CCCn4nc(C)cc43)cn2)cn1 [Compound 127, 4-(2-methyl-6,7-dihydropyrazolo[1,5-a]pyrimidin-4(5H)-yl)-N-(5-(6-methylpyridin-3-yl)pyrazin-2-yl)-4-oxobutanamide]	< 1000
O=C(CCC(=O)N1CCCn2nccc21)Nc1cc(-c2cccc(Cl)c2)no1 [Compound 133, N-(3-(3-chlorophenyl)isoxazol-5-yl)-4-(6,7-dihydropyrazolo[1,5-a]pyrimidin-4(5H)-yl)-4-oxobutanamide]	> 10000
